From patent US8969294B2 (Istituto di Recerche di Biologia Molecolare P. Angeletti …, priority 2008, dated 2015)
Like-named read-outs stand apart in the source and are kept apart here. Numbered stars: 1 amine (or outer) side, 2 acyl side, 3 side chain; on linkers, the order of the positions; unused ones are H or OH. Square brackets hold non-standard residues; d marks the D form. Side chains are listed from the residue outwards. Peptide text beside a SMILES is read from it. * marks the point of attachment. γGlu = O=C(O)[C@H](CCC(=O)[*:2])N[*:1]; Palmitoyl = CCCCCCCCCCCCCCCC(=O)*; Aib = CC(C)(N)C(=O)O

Biological target: glucagon receptor (Homo sapiens, UniProt P47871)
Sequence (P47871 26-477): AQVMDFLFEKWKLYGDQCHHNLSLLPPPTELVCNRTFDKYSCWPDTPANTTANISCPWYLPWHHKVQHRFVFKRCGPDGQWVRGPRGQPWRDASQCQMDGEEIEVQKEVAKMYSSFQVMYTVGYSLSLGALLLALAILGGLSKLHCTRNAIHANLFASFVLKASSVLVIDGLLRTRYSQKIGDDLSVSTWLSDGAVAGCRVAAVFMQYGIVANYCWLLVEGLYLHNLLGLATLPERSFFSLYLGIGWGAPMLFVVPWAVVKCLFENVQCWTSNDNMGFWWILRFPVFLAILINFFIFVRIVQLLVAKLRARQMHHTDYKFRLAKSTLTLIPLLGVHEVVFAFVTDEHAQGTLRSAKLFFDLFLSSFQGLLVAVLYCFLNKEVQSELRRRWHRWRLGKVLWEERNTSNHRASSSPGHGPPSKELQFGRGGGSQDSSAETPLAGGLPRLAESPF
Test: Functional assay, cAMP synthesis: luciferase reporter in HEK293 cells co-transfected with glucagon receptor
[1] = EC50 at Glucagon Receptor, Table 31
[2] = EC50, Glucagon Receptor, Table 13
[3] = EC50 at Glucagon Receptor, Table 17

Row | EC50 [1] [nM] | EC50 [2] [nM] | Compound | further results
1 | 0.006 |  | CCCCCCCCCCCCCCCC(=O)N[C@@H](CCC(=O)NCCCC[C@H](NC(=O)[C@H](CC(=O)O)NC(=O)[C@H](CO)NC(=O)[C@@H](NC(=O)[C@H](Cc1ccccc1)NC(=O)[C@@H](NC(=O)CNC(=O)[C@H](CCC(N)=O)NC(=O)C(C)(C)NC(=O)[C@@H](N)Cc1cnc[nH]1)[C@@H](C)O)[C@@H](C)O)C(=O)N[C@@H](CO)C(=O)N[C@@H](CCCCN)C(=O)N[C@@H](Cc1ccc(O)cc1)C(=O)N[C@@H](CC(C)C)C(=O)N[C@@H](CC(=O)O)C(=O)NC(C)(C)C(=O)N[C@@H](CCCNC(=N)N)C(=O)N[C@@H](C)C(=O)N[C@@H](C)C(=O)N[C@@H](CCC(N)=O)C(=O)N[C@@H](CC(=O)O)C(=O)N[C@@H](Cc1ccccc1)C(=O)N[C@H](C(=O)N[C@@H](CCC(N)=O)C(=O)N[C@@H](Cc1c[nH]c2ccccc12)C(=O)N[C@@H](CC(C)C)C(=O)N[C@@H](CCSC)C(=O)N[C@@H](CC(=O)O)C(=O)N[C@H](C(N)=O)[C@@H](C)O)C(C)C)C(=O)O [compound 656] | 
2 | 0.025 |  | CCCCCCCCCCCCCCCC(=O)N[C@@H](CCC(=O)NCCCC[C@H](NC(=O)[C@H](CC(=O)O)NC(=O)[C@H](CO)NC(=O)[C@@H](NC(=O)[C@H](Cc1ccccc1)NC(=O)[C@@H](NC(=O)CNC(=O)[C@H](CCC(N)=O)NC(=O)C(C)(C)NC(=O)[C@@H](N)Cc1c[nH]cn1)[C@@H](C)O)[C@@H](C)O)C(=O)N[C@@H](CO)C(=O)N[C@@H](CCCCN)C(=O)N[C@@H](Cc1ccc(O)cc1)C(=O)N[C@@H](CC(C)C)C(=O)N[C@@H](CC(=O)O)C(=O)N[C@@H](CCC(=O)O)C(=O)N[C@@H](CCC(N)=O)C(=O)N[C@@H](C)C(=O)N[C@@H](C)C(=O)N[C@@H](CCCCN)C(=O)N[C@@H](CCC(=O)O)C(=O)N[C@@H](Cc1ccccc1)C(=O)N[C@H](C(=O)N[C@@H](C)C(=O)N[C@@H](Cc1c[nH]c2ccccc12)C(=O)N[C@@H](CC(C)C)C(=O)N[C@@H](CCSC)C(=O)N[C@@H](CC(N)=O)C(=O)N[C@H](C(N)=O)[C@@H](C)O)[C@@H](C)CC)C(=O)O [compound 645] | 
3 | 0.003 |  | CCCCCCCCCCCCCCCC(=O)N[C@@H](CCC(=O)N[C@@H](CCC(=O)NCCCC[C@H](NC(=O)[C@H](CC(=O)O)NC(=O)[C@H](CO)NC(=O)[C@@H](NC(=O)[C@H](Cc1ccccc1)NC(=O)[C@@H](NC(=O)CNC(=O)[C@H](CCC(N)=O)NC(=O)C(C)(C)NC(=O)[C@@H](N)Cc1c[nH]cn1)[C@@H](C)O)[C@@H](C)O)C(=O)N[C@@H](CO)C(=O)N[C@@H](CCCCN)C(=O)N[C@@H](Cc1ccc(O)cc1)C(=O)N[C@@H](CC(C)C)C(=O)N[C@@H](CC(=O)O)C(=O)NC(C)(C)C(=O)N[C@@H](CCCNC(=N)N)C(=O)N[C@@H](C)C(=O)N[C@@H](C)C(=O)N[C@@H](CCC(N)=O)C(=O)N[C@@H](CC(=O)O)C(=O)N[C@@H](Cc1ccccc1)C(=O)N[C@H](C(=O)N[C@@H](CCC(N)=O)C(=O)N[C@@H](Cc1c[nH]c2ccccc12)C(=O)N[C@@H](CC(C)C)C(=O)N[C@@H](CCSC)C(=O)N[C@@H](CC(=O)O)C(=O)N[C@H](C(N)=O)[C@@H](C)O)C(C)C)C(=O)O)C(=O)O [compound 655] (H-H[Aib]QGTFTSDK([γGlu-γGlu-Palmitoyl])SKYLD[Aib]RAAQDFVQWLMDT-NH2; N-terminus assumed) | 

Continued, molecule first:

Row | Compound | EC50 [1] [nM] | EC50 [2] [nM] | further results
4 | CCCCCCCCCCCCCCCC(=O)NCCCC[C@H](NC(=O)[C@H](CC(=O)O)NC(=O)[C@H](CO)NC(=O)[C@@H](NC(=O)[C@H](Cc1ccccc1)NC(=O)[C@@H](NC(=O)CNC(=O)[C@H](CCC(N)=O)NC(=O)[C@H](CO)NC(=O)[C@@H](N)Cc1c[nH]cn1)[C@@H](C)O)[C@@H](C)O)C(=O)N[C@@H](CO)C(=O)N[C@@H](CCCCN)C(=O)N[C@@H](Cc1ccc(O)cc1)C(=O)N[C@@H](CC(C)C)C(=O)N[C@@H](CC(=O)O)C(=O)N[C@@H](CCC(=O)O)C(=O)N[C@@H](CCCNC(=N)N)C(=O)N[C@@H](CCCNC(=N)N)C(=O)N[C@@H](C)C(=O)N[C@@H](CCCCN)C(=O)N[C@@H](CC(=O)O)C(=O)N[C@@H](Cc1ccccc1)C(=O)N[C@H](C(=O)N[C@@H](CCC(N)=O)C(=O)N[C@@H](Cc1c[nH]c2ccccc12)C(=O)N[C@@H](CC(C)C)C(=O)N[C@@H](CCSC)C(=O)N[C@@H](CC(N)=O)C(=O)N[C@H](C(N)=O)[C@@H](C)O)C(C)C [E16 K20-glucagon-NH2 with K^10—C16] |  | 0.4 | EC50 [3]: 0.236 nM
5 | CCCCCCCCCCCCCCCC(=O)N[C@@H](CCC(=O)N[C@@H](CCC(=O)NCCCC[C@H](NC(=O)[C@H](CC(=O)O)NC(=O)[C@H](CO)NC(=O)[C@@H](NC(=O)[C@H](Cc1ccccc1)NC(=O)[C@@H](NC(=O)CNC(=O)[C@H](CCC(N)=O)NC(=O)[C@@H](CO)NC(=O)[C@@H](N)Cc1c[nH]cn1)[C@@H](C)O)[C@@H](C)O)C(=O)N[C@@H](CO)C(=O)N[C@@H](CCCCN)C(=O)N[C@@H](Cc1ccc(O)cc1)C(=O)N[C@@H](CC(C)C)C(=O)N[C@@H](CC(=O)O)C(=O)N[C@@H](CCC(=O)O)C(=O)N[C@@H](CCC(N)=O)C(=O)N[C@@H](C)C(=O)N[C@@H](C)C(=O)N[C@@H](CCCCN)C(=O)N[C@@H](CCC(=O)O)C(=O)N[C@@H](Cc1ccccc1)C(=O)N[C@H](C(=O)N[C@@H](C)C(=O)N[C@@H](Cc1c[nH]c2ccccc12)C(=O)N[C@@H](CC(C)C)C(=O)N[C@@H](CCSC)C(=O)N[C@@H](CC(N)=O)C(=O)N[C@H](C(N)=O)[C@@H](C)O)[C@@H](C)CC)C(=O)O)C(=O)O [compound 644] | 0.008 |  | 
6 | CSCC[C@H](NC(=O)[C@H](CC(C)C)NC(=O)[C@H](Cc1c[nH]c2ccccc12)NC(=O)[C@H](CCC(N)=O)NC(=O)[C@@H](NC(=O)[C@H](Cc1ccccc1)NC(=O)[C@H](CC(=O)O)NC(=O)[C@H](CCC(N)=O)NC(=O)[C@H](C)NC(=O)[C@H](CCCNC(=N)N)NC(=O)[C@H](CCCNC(=N)N)NC(=O)C(C)(C)NC(=O)[C@H](CC(=O)O)NC(=O)[C@H](CC(C)C)NC(=O)[C@H](Cc1ccc(O)cc1)NC(=O)[C@H](CCCCN)NC(=O)[C@H](CO)NC(=O)[C@H](Cc1ccc(O)cc1)NC(=O)[C@H](CC(=O)O)NC(=O)[C@H](CO)NC(=O)[C@@H](NC(=O)[C@H](Cc1ccccc1)NC(=O)[C@@H](NC(=O)CNC(=O)[C@H](CCC(N)=O)NC(=O)C(C)(C)NC(=O)[C@@H](N)Cc1c[nH]cn1)[C@@H](C)O)[C@@H](C)O)C(C)C)C(=O)N[C@@H](CC(N)=O)C(=O)N[C@H](C(N)=O)[C@@H](C)O [Peptide 26] (H-H[Aib]QGTFTSDYSKYLD[Aib]RRAQDFVQWLMNT-NH2; N-terminus assumed) |  |  | EC50 (read-out: EC50 at Glucagon Receptor, Table 22): 0.653 ± 0.285 nM
7 | CCCCCCCCCCCCCCCC(=O)N[C@@H](Cc1c[nH]c2ccccc12)C(=O)NCCCC[C@H](NC(=O)[C@H](CC(=O)O)NC(=O)[C@H](CO)NC(=O)[C@@H](NC(=O)[C@H](Cc1ccccc1)NC(=O)[C@@H](NC(=O)CNC(=O)[C@H](CCC(N)=O)NC(=O)[C@H](CO)NC(=O)[C@@H](N)Cc1c[nH]cn1)[C@@H](C)O)[C@@H](C)O)C(=O)N[C@@H](CO)C(=O)N[C@@H](CCCCN)C(=O)N[C@@H](Cc1ccc(O)cc1)C(=O)N[C@@H](CC(C)C)C(=O)N[C@@H](CC(=O)O)C(=O)N[C@@H](CCC(=O)O)C(=O)N[C@@H](CCCNC(=N)N)C(=O)N[C@@H](CCCNC(=N)N)C(=O)N[C@@H](C)C(=O)N[C@@H](CCCCN)C(=O)N[C@@H](CC(=O)O)C(=O)N[C@@H](Cc1ccccc1)C(=O)N[C@H](C(=O)N[C@@H](CCC(N)=O)C(=O)N[C@@H](Cc1c[nH]c2ccccc12)C(=O)N[C@@H](CC(C)C)C(=O)N[C@@H](CCSC)C(=O)N[C@@H](CC(N)=O)C(=O)N[C@H](C(N)=O)[C@@H](C)O)C(C)C [E16 K20-glucagon-NH2 with K^10—W—C16] |  | 0.14 | 
8 | CCCCCCCCCCCCCCCCCC(=O)N[C@@H](Cc1c[nH]c2ccccc12)C(=O)NCCCC[C@H](NC(=O)[C@H](CC(=O)O)NC(=O)[C@H](CO)NC(=O)[C@@H](NC(=O)[C@H](Cc1ccccc1)NC(=O)[C@@H](NC(=O)CNC(=O)[C@H](CCC(N)=O)NC(=O)[C@H](CO)NC(=O)[C@@H](N)Cc1c[nH]cn1)[C@@H](C)O)[C@@H](C)O)C(=O)N[C@@H](CO)C(=O)N[C@@H](CCCCN)C(=O)N[C@@H](Cc1ccc(O)cc1)C(=O)N[C@@H](CC(C)C)C(=O)N[C@@H](CC(=O)O)C(=O)N[C@@H](CCC(=O)O)C(=O)N[C@@H](CCCNC(=N)N)C(=O)N[C@@H](CCCNC(=N)N)C(=O)N[C@@H](C)C(=O)N[C@@H](CCCCN)C(=O)N[C@@H](CC(=O)O)C(=O)N[C@@H](Cc1ccccc1)C(=O)N[C@H](C(=O)N[C@@H](CCC(N)=O)C(=O)N[C@@H](Cc1c[nH]c2ccccc12)C(=O)N[C@@H](CC(C)C)C(=O)N[C@@H](CCSC)C(=O)N[C@@H](CC(N)=O)C(=O)N[C@H](C(N)=O)[C@@H](C)O)C(C)C [E16 K20-glucagon-NH2 with K^10—W—C18] |  | 0.05 | EC50 [3]: 0.044 nM
9 | CCCCCCCCCCCCCCCC(=O)NCCCC[C@H](NC(=O)[C@H](CC(=O)O)NC(=O)[C@H](CO)NC(=O)[C@@H](NC(=O)[C@H](Cc1ccccc1)NC(=O)[C@@H](NC(=O)CNC(=O)[C@H](CCC(N)=O)NC(=O)C(C)(C)NC(=O)[C@@H](N)Cc1c[nH]cn1)[C@@H](C)O)[C@@H](C)O)C(=O)N[C@@H](CO)C(=O)N[C@@H](CCCCN)C(=O)N[C@@H](Cc1ccc(O)cc1)C(=O)N[C@@H](CC(C)C)C(=O)N[C@@H](CC(=O)O)C(=O)NC(C)(C)C(=O)N[C@@H](CCCNC(=N)N)C(=O)N[C@@H](CCCNC(=N)N)C(=O)N[C@@H](C)C(=O)N[C@@H](CCC(N)=O)C(=O)N[C@@H](CC(=O)O)C(=O)N[C@@H](Cc1ccccc1)C(=O)N[C@H](C(=O)N[C@@H](CCC(N)=O)C(=O)N[C@@H](Cc1c[nH]c2ccccc12)C(=O)N[C@@H](CC(C)C)C(=O)N[C@@H](CCSC)C(=O)N[C@@H](CC(N)=O)C(=O)N[C@H](C(=O)N[C@@H](CCCCN)C(N)=O)[C@@H](C)O)C(C)C |  |  | EC50 (EC50 at Glucagon Receptor (20% human plasma), Table 28, 20% human plasma): 0.313 nM; EC50 (EC50 at Glucagon Receptor, Table 28): 0.761 nM
